A short description of series [1]: Solubility in solvents and water. The series is classed as physicochemical.
Series [2] relates to Arteriovenous Loop Thrombus. Nature of the series: Arteriovenous loop thrombus in rats, thrombus wet weight and inhibition rate. The series is classed as in vivo. To be noted: 5.4 mg·kg^−1 by gavage for 3 days. As for the experimental part: Normal rats, half male and half female, were randomly grouped according to table 1. The administration group was given water solution of Sodium Salt L-ascorbic acid-6-O—(S)-ibuprofen ester (pH 7.4) by gavage and the control group was given equivalent pH normal saline for continuous 3 days. The rat was intraperitoneally injected with 350 mg of 8% chloral hydrate per kg for anesthesia 1 h after the last administration, and then fixed in the supine position to separate the right common carotid artery and the left external jugular vein. An early weighed No. 7 operation line (about 8 cm long) was placed in the middle of a 10 cm long polyethylene tube, and then the tube was filled with normal saline and both ends of the tube were connected with an intubation filled with heparin (about 3 cm long), in which one end was inserted into the jugular vein, and the other end was inserted into the common carotid artery. After opening the artery clip, the in vitro loop flow was formed. The blood flow was interrupted after 15 min followed by quickly taking the thrombus and weighing. […]
Statistical analysis: the experimental data was represented as x±s, and the significance of the differences was determined with one-factor analysis of variance. t represented t-test results between the control group and the Sodium Salt L-ascorbic acid-6-O—(S)-ibuprofen ester.

As for `CC(C)Cc1ccc([C@H](C)C(=O)OC[C@H](O)[C@H]2OC(=O)C(O)=C2O)cc1` [Embodiment 1, L-Ascorbic Acid-6-O—(S)-Ibuprofen Ester], the Solubility entry in series [1] (in chloroform) is “insoluble”; in series [1] (in cyclohexane), “insoluble”; in series [1] (in ethanol), “soluble”; in series [1] (in methanol), “soluble”; in series [1] (in propylene glycol) it was “soluble”; in series [1] (in water) it was “insoluble”.

In series [1] (water), `CC(C)Cc1ccc([C@H](C)C(=O)OC[C@H](O)[C@H]2OC(=O)C(O)=C2[O-])cc1.[Na+]` [Sodium Salt L-Ascorbic Acid-6-O—(S)-Ibuprofen Ester] gave a solubility in water of 12.8 g. For the same molecule, the “thrombus wet weight/body weight × 100” value in series [2] (1 h after last administration, 15 min loop flow, x±s) is on record as 10.372 ± 0.801. This molecule also returned a Thrombus inhibition rate in series [2] (versus control group) of 12.9%.

Source of the values: patent publication US8703975B2, “Aryl (ethanoic) propanoic acid ascorbyl ester, preparation method thereof and medicament containing the same” (Wuxi Hongrui Bio-Pharma-Tech Co., Ltd., priority 2009, dated 2014).
